According to the supplement of paper PMC11061612:

Legend:
Test in all cases: Bliss excess, mean over the matrix (fraction); higher = more synergy
[1] = tested on: ZR-75-30 (Breast Carcinoma)
How it was run: (§1)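 Cell lines in DMEM/F12 or RPMI with 10% FBS were plated in 1536-well plates, held 24 hours at 37°C, 5% CO2, then given two-drug dose matrices for 72 hours (DMSO typically 0.2%). Viability was read by CellTiter-Glo 2.0 luminescence and scaled as inhibition from 0 (vehicle wells) to 1 (blank wells). Combination Emax is the second-highest inhibition in the matrix; Bliss excess is observed combination effect minus expected EA + EB − EA·EB, EA and EB being single-agent effects.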

[2] = tested on: WM35 (Melanoma)
How it was run: as §1

[3] = tested on: NCI-H226 (Mesothelioma)
How it was run: as §1

[4] = tested on: SNU-407 (Colorectal Carcinoma)
How it was run: as §1

[5] = tested on: HT-1080 (Other Solid Carcinomas)
How it was run: as §1

[6] = tested on: MONO-MAC-6 (Acute Myeloid Leukemia)
How it was run: as §1

[7] = tested on: NB1 (Neuroblastoma)
How it was run: as §1

[8] = tested on: T47D (Breast Carcinoma)
How it was run: as §1

[9] = tested on: COR-L88 (Small Cell Lung Carcinoma)
How it was run: as §1

[10] = tested on: LCLC-103H (Non-Small Cell Lung Carcinoma)
How it was run: as §1

[11] = tested on: NCI-H2373 (Mesothelioma)
How it was run: as §1

[12] = tested on: NAMALWA (Burkitt's Lymphoma)
How it was run: as §1

[13] = tested on: IST-MEL1 (Melanoma)
How it was run: as §1

[14] = tested on: BxPC-3 (Pancreatic Carcinoma)
How it was run: as §1

[15] = tested on: NCI-H596 (Other Solid Carcinomas)
How it was run: as §1

[16] = tested on: GAK (Melanoma)
How it was run: as §1

[17] = tested on: P32-ISH (Burkitt's Lymphoma)
How it was run: as §1

[18] = tested on: DBTRG-05MG (Glioblastoma)
How it was run: as §1

[19] = tested on: PL4 (Pancreatic Carcinoma)
How it was run: as §1

[20] = tested on: SCC-4 (Oral Cavity Carcinoma)
How it was run: as §1

SMILES | Bliss excess [1] | Bliss excess [2] | Bliss excess [3] | Bliss excess [4] | Bliss excess [5] | Bliss excess [6] | Bliss excess [7] | Bliss excess [8] | Bliss excess [9] | Bliss excess [10] | Bliss excess [11] | Bliss excess [12] | Bliss excess [13] | Bliss excess [14] | Bliss excess [15] | Bliss excess [16] | Bliss excess [17] | Bliss excess [18] | Bliss excess [19] | Bliss excess [20]
CN(C)CCCOc1ccc(-c2ccc3ncc4c(c3c2)n(C2CCOCC2)c(=O)n4C)cn1 [AZD0156] + O=C(c1cc(Cc2n[nH]c(=O)c3ccccc23)ccc1F)N1CCN(C(=O)C2CC2)CC1 [Olaparib] (first compound max 3 µM, partner max 3 µM) | -0.0203 | -0.0272 | -0.0594 | -0.0122 | -0.0054 | 0.102 | -0.0721 | 0.0296 | -0.193 | 0.0713 | 0.0178 | 0.117 | 0.0034 | -0.0342 | 0.0282 | 0.0131 | 0.211 | -0.0207 | 0.018 | 0.0057
COc1cccc(OCCCN)c1-c1cc(Nc2cnc(C#N)cn2)n[nH]1 [Prexasertib] + C=CCn1c(=O)c2cnc(Nc3ccc(N4CCN(C)CC4)cc3)nc2n1-c1cccc(C(C)(C)O)n1 [AZD1775] (first compound max 1 µM, partner max 1 µM) | -0.0353 | 0.0668 | 0.0023 | 0.0807 | 0.0643 | 0.168 | 0.0693 | 0.085 | 0.0538 | 0.0284 | 0.0601 | 0.06 | 0.0406 | -0.0074 | 0.0087 | 0.0832 | 0.0657 | -0.0008 | 0.0483 | -0.0358
NC1(C(=O)N[C@@H](CCO)c2ccc(Cl)cc2)CCN(c2ncnc3[nH]ccc23)CC1 [Capivasertib] + CCN(CCO)CCCOc1ccc2c(Nc3cc(CC(=O)Nc4cccc(F)c4)[nH]n3)ncnc2c1 [AZD2811] (first compound max 10 µM, 7x7, partner max 1 µM) | -0.0115 | -0.0471 | -0.0459 | -0.0833 | -0.0498 | 0.0633 | -0.0284 | 0.071 | -0.0738 | -0.0032 | -0.079 | 0.0887 | -0.0347 | -0.0545 | 0.017 | -0.0181 | -0.021 | 0.03 | 0.0317 | -0.0671
Cc1cc2ncnn2cc1Nc1ncc2c(n1)n(C1CCOCC1)c(=O)n2C [AZD7648] + C[C@@H]1COCCN1C2=NC(=NC(=C2)C3(CC3)[S@](=N)(=O)C)C4=C5C=CNC5=NC=C4 [AZD6738] (first compound max 10 µM, 7x7, partner max 10 µM) | -0.0224 | 0.0113 | 0.046 | -0.0207 | -0.0459 | -0.0147 | 0.0428 | 0.0444 | 0.0291 | 0.042 | -0.102 | -0.0089 | -0.0172 | 0.0044 | -0.0318 | 0.0104 | -0.0029 | -0.0174 | -0.0396 | -0.025
COc1cccc(OCCCN)c1-c1cc(Nc2cnc(C#N)cn2)n[nH]1 [Prexasertib] + CN(C)CCCOc1ccc(-c2ccc3ncc4c(c3c2)n(C2CCOCC2)c(=O)n4C)cn1 [AZD0156] (first compound max 1 µM, 7x7, partner max 1 µM) | -0.0512 | 0.0756 | -0.0611 | -0.0146 | 0.0241 | 0.0031 | 0.142 | -0.0302 | -0.0137 | -0.0391 | 0.0329 | -0.0133 | -0.05 | -0.0582 | -0.0909 | 0.0668 | -0.0238 | -0.0209 | -0.0387 | -0.0323
CCN(CCO)CCCOc1ccc2c(Nc3cc(CC(=O)Nc4cccc(F)c4)[nH]n3)ncnc2c1 [AZD2811] + O=C(c1cc(Cc2n[nH]c(=O)c3ccccc23)ccc1F)N1CCN(C(=O)C2CC2)CC1 [Olaparib] (first compound max 1 µM, 7x7, partner max 10 µM) | -0.0225 | 0.0069 | -0.0448 | -0.0292 | -0.0043 | 0.0056 | -0.0581 | 0.005 | -0.0475 | -0.0275 | 0.0244 | 0.0548 | 0.0192 | 0.0032 | -0.0372 | -0.0049 | -0.035 | -0.0179 | -0.0043 | -0.0447
Cc1cc2ncnn2cc1Nc1ncc2c(n1)n(C1CCOCC1)c(=O)n2C [AZD7648] + CN(C)CCCOc1ccc(-c2ccc3ncc4c(c3c2)n(C2CCOCC2)c(=O)n4C)cn1 [AZD0156] (first compound max 10 µM, 7x7, partner max 1 µM) | -0.0321 | -0.0123 | -0.0393 | -0.0385 | -0.0246 | -0.0869 | 0.0084 | 0.0055 | -0.0326 | -0.0422 | -0.0077 | -0.0224 | -0.0228 | -0.0034 | -0.002 | 0.0232 | 0.0153 | -0.0363 | -0.0153 | -0.0164
COc1nnc2ccc(N3CCC(c4ccc(OCCN5CCN(C)C(=O)[C@H]5C)cc4)CC3)nn12 [AZD5153] + Cn1cnc2c(F)c(Nc3ccc(Br)cc3Cl)c(C(=O)NOCCO)cc21 [Selumetinib] (first compound max 1 µM, 7x7, partner max 10 µM) | -0.0133 | 0.0702 | -0.045 | -0.0175 | 0.0587 | -0.008 | -0.0454 | 0.0101 | -0.0196 | 0.0325 | -0.0666 | -0.0375 | 0.0304 | -0.0864 | -0.0344 | -0.0532 | -0.0417 | -0.014 | -0.0089 | -0.0332
CC(=O)c1c(C)c2cnc(Nc3ccc(N4CCNCC4)cn3)nc2n(C2CCCC2)c1=O [Palbociclib] + Cc1c2c(nn1C)CSCc1cc(n(C)n1)CSc1cc(c3ccccc3c1)OCCCc1c(C(=O)O)n(C)c3c-2c(Cl)ccc13 [AZD5991] (first compound max 10 µM, 7x7, partner max 1 µM) | -0.0372 | -0.0198 | -0.0287 | -0.0968 | -0.0592 | -0.0016 | -0.061 | 0.0375 | 0.0122 | -0.0151 | -0.0396 | -0.0139 | -0.0328 | -0.0528 | -0.13 | -0.0234 | 0.0299 | -0.0561 | -0.0458 | -0.0394
CCc1c2c(nc3ccc(O)cc13)-c1cc3c(c(=O)n1C2)COC(=O)[C@]3(O)CC [SN-38] + CN(C)CCCOc1ccc(-c2ccc3ncc4c(c3c2)n(C2CCOCC2)c(=O)n4C)cn1 [AZD0156] (first compound max 0.3 µM, 7x7, partner max 1 µM) | -0.194 | 0.0082 | -0.0287 | -0.0188 | 0.0132 | 0.0746 | -0.0476 | -0.0023 | -0.0636 | 0.0263 | -0.0037 | 0.0402 | -0.0785 | 0.0025 | 0.027 | 0.0182 | 0.0657 | -0.019 | 0.0253 | 0.0021
C[C@@H]1COCCN1c1cc(C2([S@](C)(=N)=O)CC2)nc(-c2ccnc3[nH]ccc23)n1 [AZD6738] + O=C(c1cc(Cc2n[nH]c(=O)c3ccccc23)ccc1F)N1CCN(C(=O)C2CC2)CC1 [Olaparib] (first compound max 10 µM, 7x7, partner max 10 µM) | -0.0408 | 0.0084 | -0.0156 | -0.0323 | 0.0128 | -0.0438 | -0.058 | 0.0359 | -0.12 | 0.0482 | 0.0165 | -0.0187 | 0.035 | 0.0231 | -0.0841 | 0.0019 | -0.0424 | 0.0096 | -0.0408 | 0.059
CN(CCO)CC[C@H](CSc1ccccc1)Nc1ccc(S(=O)(=O)NC(=O)c2ccc(N3CCC([C@@H](O)c4ccccc4-c4ccc(Cl)cc4)CC3)cc2)cc1S(=O)(=O)C(F)(F)F [AZD4320] + CCN(CCO)CCCOc1ccc2c(Nc3cc(CC(=O)Nc4cccc(F)c4)[nH]n3)ncnc2c1 [AZD2811] (first compound max 1 µM, 7x7, partner max 1 µM) | -0.0024 | -0.0084 | -0.0238 | -0.102 | -0.0046 | 0.145 | 0.0994 | -0.0174 | 0.0591 | -0.0157 | -0.0366 | 0.0873 | 0.0445 | -0.0001 | -0.0631 | -0.0032 | -0.0231 | 0.0363 | 0.0251 | 0.0936
CC(=O)c1c(C)c2cnc(Nc3ccc(N4CCNCC4)cn3)nc2n(C2CCCC2)c1=O [Palbociclib] + Cn1cnc2c(F)c(Nc3ccc(Br)cc3Cl)c(C(=O)NOCCO)cc21 [Selumetinib] (first compound max 10 µM, 7x7, partner max 10 µM) | -0.0509 | -0.0282 | -0.0052 | 0.0615 | -0.0519 | 0.0184 | -0.0669 | -0.0328 | -0.026 | 0.0012 | -0.0239 | -0.0123 | 0.052 | -0.0238 | -0.0393 | 0.0221 | -0.0334 | 0.0013 | -0.0553 | 0.0091
CCN(CCO)CCCOc1ccc2c(Nc3cc(CC(=O)Nc4cccc(F)c4)[nH]n3)ncnc2c1 [AZD2811] + C=CCn1c(=O)c2cnc(Nc3ccc(N4CCN(C)CC4)cc3)nc2n1-c1cccc(C(C)(C)O)n1 [AZD1775] (first compound max 1 µM, partner max 1 µM) | -0.0422 | -0.0098 | -0.0708 | -0.015 | 0.025 | 0.0263 | -0.0433 | -0.0236 | -0.0099 | 0.0066 | -0.0482 | -0.0101 | 0.0196 | -0.0099 | 0.0114 | -0.0522 | -0.0336 | -0.0402 | -0.0002 | -0.0024
Cc1c2c(nn1C)CSCc1cc(n(C)n1)CSc1cc(c3ccccc3c1)OCCCc1c(C(=O)O)n(C)c3c-2c(Cl)ccc13 [AZD5991] + C=CCn1c(=O)c2cnc(Nc3ccc(N4CCN(C)CC4)cc3)nc2n1-c1cccc(C(C)(C)O)n1 [AZD1775] (first compound max 1 µM, partner max 1 µM) | 0.0376 | 0.027 | 0.018 | -0.0183 | 0.0345 | -0.0256 | -0.0156 | -0.0369 | -0.0463 | 0.0101 | -0.0079 | 0.0017 | -0.0318 | -0.0125 | -0.0682 | -0.0077 | -0.0228 | 0.005 | -0.0928 | 0.0917
